From US9359341B2, “Aldehyde derivative of substitute oxazolidinones” (WANBURY LTD., priority 2012, dated 2016)

Experiments:
[1] = Intravenous and oral excretion profile in Wistar rats; type: in vivo; details: for Mean (ng) Urine: IV 1 mg/Kg, rivaroxaban in urine
Procedure: On the day before administration of the substance, a catheter for obtaining blood is implanted in the jugular vein of the experimental animals (male Wistar rats, body weight 200-250 g) under Isoflurane. anesthesia.
Urine and faeces are taken collected from metabolic cages over the course of 144 h after administration of the substance. The administration volume is 10 ml/kg for oral and 1 ml/kg for IV in male Wistar rats. Intravenous administration is via a formulation of 2% N—N Dimethyl acetamide/ethanol 10%/PEG400 (30%)/water for IV injection (58%) and via Tween80/PEG400/sterile water in the case of oral administration. Urine and faeces collection is 0-4, 4-8, 8-24, 24-48, 48-72, 72-96, 96-120, 120-144 in the case of IV and for oral administration.
Urine and faeces was processed and IS containing Acetonitrile is added to a defined urine/faeces and precipitated. After centrifugation, compound formula (B) and, where appropriate, known cleavage products of the compound formula (B) in the supernatant are determined quantitatively using a suitable LC/MS-MS method.
The measured urine and faeces concentrations are used to calculate parameters of the test substance and of the active ingredient compound (A) liberated there from, such as AUC and Cmax.
Acetonitrile containing IS is added to the study samples, calibration samples and QCs, and the protein is precipitated using acetonitrile. Vortexed and centrifuged and the supernatant is injected by LC-MS/MS (API 4000, AB Sciex). Chromatographic separation is carried out on an Shimadzu UFLC. The injection volume is 10 μl. The separation column used is a Phenomenex Gemini NX 4.6×5μ. 100 mm, adjusted to a temperature of 30° C. A binary mobile phase gradient at 800.mu·l/min is used (A: 0.1% formic acid in water, B: acetonitrile: API 4000, ESI Agilent 1100 column: Gemini Nx 100 mm×4.6 mm 5.μ; column temperature: 30° C.; eluent A: 0.1% formic acid in water, eluent B: acetonitrile; gradient: 0-2.5 min 95% A, 5% B; 2.5-2.6 min 5% A, 95% B; 2.6-4.2 min 95% A, 5% B; flow rate: 0.8 ml/min; ESI. Q1:464.098, Q3:144.255 The temperature of the Turbo V ion source is 500° C. The following MS instrument parameters are used: curtain gas 20 units, ion spray voltage 5 kV, gas 1 50 units gas 2 50 units, CAD gas 6 units. The substances are quantified by peak heights or areas using extracted ion chromatograms of specific MRM experiments.

[2] = In vitro liver microsomal stability assay (rat); type: in vitro ADME; details: rat liver microsomes
Procedure: (§1) Liver microsomal stability assays are conducted at 1 mg per mL liver microsome protein with an NADPH in phosphate buffer (100 mM, pH 7.4). Test compounds (compound of formula B of the invention) are prepared as solutions in 20% methanol-water and added to the assay mixture (final assay concentration 1 μM) and incubated at 37° C. Aliquots (100.μ·L) are taken out at times 0, 15, and 30 minutes, and diluted with ice cold acetonitrile containing IS (200.mu·L) to stop the reactions. Samples are centrifuged at 10,000 RPM for 5 minutes to precipitate proteins. Supernatants are transferred to micro centrifuge tubes and stored at −20° C. for analysis of LC/MS/MS. The percent parent remaining of the test substance is calculated as Ratio of peak area at each time point to peak area ratio at zero min, multiplied by 100. The compound formula (B) is converted to Rivaroxaban in microsomal assay.

[3] = In vitro stability in mouse plasma; type: in vitro ADME
Procedure: (§2) The final concentration of the test compound in the assay is 5 micromolar. […] C. The 100 microliters of aliquot at time point was removed and diluted with ice cold acetonitrile containing IS (200.mu·L) to stop the reactions. Samples are centrifuged at 10,000 RPM for 5 minutes to precipitate proteins. Supernatants are transferred to micro centrifuge tubes and stored at −20° C. for analysis of LC/MS/MS. The percent parent remaining of the test substance is calculated as ratio of peak area at each time point to peak area ratio at zero min, multiplied by 100.
(§3) API 4000, ESI Agilent 1100 column: Gemini Nx 100 mm×4.6 mm 5.1; column temperature: 30° C.; eluent A: 0.1% formic acid in water, eluent B: acetonitrile; gradient: 0-2.5 min 95% A, 5% B; 2.5-2.6 min 5% A, 95% B; 2.6-4.2 min 95% A, 5% B; flow rate: 0.8 ml/min; ESI. Q1:464.098, Q3:144.255

CYP2J2 = CYP2J2 (Homo sapiens (Human), UniProt P51589); test: CYP inhibition assay; type: in vitro ADME; details: pooled human liver microsomes; extrapolated IC50 derived from 3 μM
Procedure: (§4) The ability of substances to inhibit CYP1A2, CYP2C9, CYP2D6, CYP2C19, CYP2J2 and CYP3A4 in humans was investigated with pooled human liver microsomes as enzyme source in the presence of standard substrates (see below) which form CYP-isoform-specific metabolites.
(§5) Standard incubation mixtures comprise NADPH and substrates in 100 mM phosphate buffer (pH 7.4) in a total volume of 200 μl. Test compound are dissolved in acetonitrile. Incubated with pooled human liver microsomes at 37° C. for a defined time. The reactions are stopped by adding 100 μl of acetonitrile in which a suitable internal standard is always present. Precipitated proteins are removed by centrifugation, and the supernatants analyzed by LC-MS/MS. The data represents the extrapolated IC50 (μM) concentration derived from 3 μM.

CYP2D6 = CYP2D6 (Homo sapiens (Human), UniProt P10635); test: CYP inhibition assay; type: in vitro ADME; details: pooled human liver microsomes; extrapolated IC50 derived from 3 μM; read-out: IC50 (μM) of CYP isoforms, 2D6
Procedure: as §4, §5

CYP2C9 = CYP2C9 (Homo sapiens (Human), UniProt P11712); test: CYP inhibition assay; type: in vitro ADME; details: pooled human liver microsomes; extrapolated IC50 derived from 3 μM; read-out: IC50 (μM) of CYP isoforms, 2C9
Procedure: as §4, §5

CYP2C19 = CYP2C19 (Homo sapiens (Human), UniProt P33261); test: CYP inhibition assay; type: in vitro ADME; details: pooled human liver microsomes; extrapolated IC50 derived from 3 μM; read-out: IC50 (μM) of CYP isoforms, 2C19
Procedure: as §4, §5

CYP1A2 = CYP1A2 (Homo sapiens (Human), UniProt P05177); test: CYP inhibition assay; type: in vitro ADME; details: pooled human liver microsomes; extrapolated IC50 derived from 3 μM; read-out: IC50 (μM) of CYP isoforms, 1A2
Procedure: as §4
as §5, with “LC-MS/MS.” for “LC-MS/MS. The data represents the extrapolated IC50 (μM) concentration derived from 3 μM.”

[4] = In vitro liver microsomal stability assay (mouse); type: in vitro ADME; details: mouse liver microsomes
Procedure: as §1

[5] = In vitro stability in human plasma; type: in vitro ADME
Procedure: as §2, §3

[6] = In vitro liver microsomal stability assay (human); type: in vitro ADME; details: human liver microsomes
Procedure: as §1

[7] = In vitro stability in rat plasma; type: in vitro ADME
Procedure: as §2, §3

Chain of CYP2C9 (P11712 whole entry, canonical isoform): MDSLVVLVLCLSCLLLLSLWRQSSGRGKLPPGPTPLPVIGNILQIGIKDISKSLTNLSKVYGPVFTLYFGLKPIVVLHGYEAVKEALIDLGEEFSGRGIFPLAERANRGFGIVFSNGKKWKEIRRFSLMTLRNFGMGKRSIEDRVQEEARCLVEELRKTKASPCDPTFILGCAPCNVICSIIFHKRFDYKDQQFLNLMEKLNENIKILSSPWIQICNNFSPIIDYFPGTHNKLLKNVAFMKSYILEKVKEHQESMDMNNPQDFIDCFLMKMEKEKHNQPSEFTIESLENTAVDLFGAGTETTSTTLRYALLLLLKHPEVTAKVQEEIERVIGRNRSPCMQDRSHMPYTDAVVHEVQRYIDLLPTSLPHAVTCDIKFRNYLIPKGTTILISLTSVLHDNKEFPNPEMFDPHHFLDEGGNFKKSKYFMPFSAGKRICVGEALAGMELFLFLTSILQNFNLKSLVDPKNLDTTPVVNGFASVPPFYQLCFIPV
Chain of CYP2C19 (P33261 whole entry, canonical isoform): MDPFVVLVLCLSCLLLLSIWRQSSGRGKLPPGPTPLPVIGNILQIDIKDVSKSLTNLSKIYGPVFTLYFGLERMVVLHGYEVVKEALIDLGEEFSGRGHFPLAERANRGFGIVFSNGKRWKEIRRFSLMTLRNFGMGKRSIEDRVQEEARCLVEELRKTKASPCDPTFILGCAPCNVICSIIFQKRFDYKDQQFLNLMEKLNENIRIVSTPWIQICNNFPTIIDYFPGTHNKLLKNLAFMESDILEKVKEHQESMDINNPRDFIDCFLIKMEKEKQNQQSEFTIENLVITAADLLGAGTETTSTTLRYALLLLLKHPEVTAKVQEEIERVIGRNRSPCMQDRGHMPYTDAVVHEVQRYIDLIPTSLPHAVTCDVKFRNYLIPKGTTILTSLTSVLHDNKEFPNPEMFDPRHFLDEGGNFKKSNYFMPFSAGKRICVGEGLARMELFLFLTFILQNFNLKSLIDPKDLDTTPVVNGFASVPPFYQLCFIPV
Chain of CYP1A2 (P05177 whole entry, canonical isoform): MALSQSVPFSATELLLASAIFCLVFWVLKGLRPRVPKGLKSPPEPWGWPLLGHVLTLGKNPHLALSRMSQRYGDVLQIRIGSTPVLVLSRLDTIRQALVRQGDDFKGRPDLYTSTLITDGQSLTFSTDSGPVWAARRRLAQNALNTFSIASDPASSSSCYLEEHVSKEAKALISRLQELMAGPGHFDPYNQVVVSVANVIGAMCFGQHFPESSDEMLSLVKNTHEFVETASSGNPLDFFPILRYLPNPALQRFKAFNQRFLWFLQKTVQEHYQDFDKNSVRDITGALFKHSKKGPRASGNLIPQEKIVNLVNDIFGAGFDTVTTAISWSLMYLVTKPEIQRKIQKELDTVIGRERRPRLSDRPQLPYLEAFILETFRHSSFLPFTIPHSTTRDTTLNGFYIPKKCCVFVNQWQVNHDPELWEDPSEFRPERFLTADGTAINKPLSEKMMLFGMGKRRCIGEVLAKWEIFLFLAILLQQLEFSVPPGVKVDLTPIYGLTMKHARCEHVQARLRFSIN
Chain of CYP2J2 (P51589 whole entry, canonical isoform): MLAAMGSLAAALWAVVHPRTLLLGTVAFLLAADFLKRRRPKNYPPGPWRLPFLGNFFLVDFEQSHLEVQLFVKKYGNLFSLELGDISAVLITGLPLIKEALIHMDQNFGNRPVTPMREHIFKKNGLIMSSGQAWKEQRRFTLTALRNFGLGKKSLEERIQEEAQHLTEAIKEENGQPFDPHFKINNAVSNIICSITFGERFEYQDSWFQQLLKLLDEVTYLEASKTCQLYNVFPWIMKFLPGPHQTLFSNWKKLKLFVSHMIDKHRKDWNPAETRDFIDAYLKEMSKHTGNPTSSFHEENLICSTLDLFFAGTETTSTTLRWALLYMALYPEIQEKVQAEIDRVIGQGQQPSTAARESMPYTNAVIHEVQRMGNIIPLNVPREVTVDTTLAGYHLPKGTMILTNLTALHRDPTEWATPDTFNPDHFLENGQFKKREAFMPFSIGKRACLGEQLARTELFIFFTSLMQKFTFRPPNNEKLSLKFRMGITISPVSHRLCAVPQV
Chain of CYP2D6 (P10635 whole entry, canonical isoform): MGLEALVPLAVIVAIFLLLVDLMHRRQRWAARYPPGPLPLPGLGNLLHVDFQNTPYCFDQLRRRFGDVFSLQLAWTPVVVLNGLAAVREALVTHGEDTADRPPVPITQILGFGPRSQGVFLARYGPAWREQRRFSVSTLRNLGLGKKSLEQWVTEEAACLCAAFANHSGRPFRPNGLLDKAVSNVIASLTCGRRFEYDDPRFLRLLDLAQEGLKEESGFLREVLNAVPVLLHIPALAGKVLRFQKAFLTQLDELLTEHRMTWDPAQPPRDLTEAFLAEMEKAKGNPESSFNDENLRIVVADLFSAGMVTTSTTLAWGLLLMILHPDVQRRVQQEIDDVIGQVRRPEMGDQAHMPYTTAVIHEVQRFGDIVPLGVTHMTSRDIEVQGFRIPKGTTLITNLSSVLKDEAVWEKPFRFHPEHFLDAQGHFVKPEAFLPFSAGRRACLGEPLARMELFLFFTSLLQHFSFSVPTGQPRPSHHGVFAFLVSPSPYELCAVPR

Mean (ng) Urine ([1]; 120 h): BLQ
Mean (ng) Urine ([1]; 144 h): BLQ
concentration at 144 h ([1]; male, Wistar, rat, faeces, iv, 1 mg/kg): 16.8 ng/g
% metabolised [2]: 99.98%
Observation (metabolism; for Test Product: of the formed rivaroxaban) [2]: High
% Parent remaining(rat) ([2]; 0 min): 100%
% Parent remaining(rat) ([2]; 15 min): 0.01%
% Parent remaining(rat) ([2]; 30 min): 0.02%
% Parent remaining(Mouse) ([3]; 0 min): 100%
% Parent remaining(Mouse) ([3]; 30 min): 100%
% Parent remaining(Mouse) ([3]; 60 min): 100%
IC50 (μM) of CYP isoforms, 2J2 (CYP2J2): No inhibition
IC50 (CYP2D6): 13.2 µM
IC50 (CYP2C9): 16.7 µM
IC50 (CYP2C19): 13.2 µM
IC50 (CYP1A2): 18.9 µM
% metabolised [4]: 99.98%
Observation (metabolism; for Test Product: of the formed rivaroxaban) [4]: High
% Parent remaining(Mouse) ([4]; 0 min): 100%
% Parent remaining(Mouse) ([4]; 15 min): 0.03%
% Parent remaining(Mouse) ([4]; 30 min): 0.02%
Conversion: unchanged, stable in plasma [5]: 99.99%,
% Parent remaining (Human) ([5]; 0 min): 100%
% Parent remaining (Human) ([5]; 30 min): 100%
% Parent remaining (Human) ([5]; 60 min): 99.68%
% metabolised [6]: 99.99%
Observation (metabolism; for Test Product: of the formed rivaroxaban) [6]: High
% Parent remaining (Human) ([6]; 0 min): 100%
% Parent remaining (Human) ([6]; 15 min): 0.01%
% Parent remaining (Human) ([6]; 30 min): 0.01%
Conversion: unchanged, stable in plasma [7]: 88.4%,
% Parent remaining(rat) ([7]; 0 min): 100%
% Parent remaining(rat) ([7]; 30 min): 82.35%
% Parent remaining(rat) ([7]; 60 min): 88.4%
SMILES: O=C(NC[C@H]1CN(c2ccc(N3CCOCC3=O)cc2)C(=O)O1)c1ccc(Cl)s1 [Rivaroxaban, 5-chloro-N-({(5S)-2-oxo-3-[4-(3-oxomorpholin-4-yl)phenyl]-1,3-oxazolidin-5-yl}methyl)thiophene-2-carboxamide]
